Assay results: ChEMBL document CHEMBL1153605, “Synthesis and in vivo antidiabetic activity of novel dispiropyrrolidines through [3+2] cycloaddition reactions with thiazolidinedione and rhodanine derivatives” (2009)

Assays:
Type in all cases: functional
[1] = tested on: Rattus norvegicus; test: Reduction of serum creatinine level in alloxan-induced diabetic Wistar rat model at 36 mg/kg, po administered once daily for 15 days measured on day 18
[2] = tested on: Rattus norvegicus; test: Antidiabetic activity in alloxan-induced diabetic Wistar rat model assessed as reduction in blood glucose level at 36 mg/kg, po administered once daily for 15 days measured after 1 hr postdose
[3] = tested on: Rattus norvegicus; test: Reduction of serum GPT level in alloxan-induced diabetic Wistar rat model at 36 mg/kg, po administered once daily for 15 days measured on day 18
[4] = tested on: Rattus norvegicus; test: Antidiabetic activity in alloxan-induced diabetic Wistar rat model assessed as reduction in blood glucose level at 36 mg/kg, po administered once daily for 15 days measured after 3 hrs postdose
[5] = tested on: Rattus norvegicus; test: Reduction of blood urea nitrogen level in alloxan-induced diabetic Wistar rat model at 36 mg/kg, po administered once daily for 15 days measured on day 18
[6] = tested on: Rattus norvegicus; test: Reduction of liver ALP level in alloxan-induced diabetic Wistar rat model at 36 mg/kg, po administered once daily for 15 days measured on day 18
[7] = tested on: Rattus norvegicus; test: Antidiabetic activity in alloxan-induced diabetic Wistar rat model assessed as reduction in blood glucose level at 36 mg/kg, po administered once daily for 15 days measured after 6 hrs postdose
[8] = tested on: Rattus norvegicus; test: Reduction of liver GPT level in alloxan-induced diabetic Wistar rat model assessed per mg of protein at 36 mg/kg, po administered once daily for 15 days measured on day 18

With `COc1ccc([C@H]2CN(C)[C@@]3(C(=O)Nc4ccccc43)[C@@]23SC(=O)NC3=S)cc1OC` the Activity [1] was 2.2 mg/dL, the Activity [2] was 140.5 mg/dL and the Activity [3] was 121 U/ml. The Activity [4] was 106.5 mg/dL, the Activity [5] was 35.5 mg/dL and the Activity [6] was 42.3 KA/dl. It also gave an Activity [7] of 95.8 mg/dL and an Activity [8] of 576 U/mg protein.

Work on `CN1C[C@H](c2ccc(F)c(F)c2)[C@]2(SC(=O)NC2=O)[C@]12C(=O)Nc1ccccc12` yielded an Activity [1] of 2.1 mg/dL, an Activity [2] of 134.5 mg/dL and an Activity [3] of 132 U/ml. It also gave an Activity [4] of 123.5 mg/dL, an Activity [5] of 35 mg/dL and an Activity [6] of 41.3 KA/dl. For the same molecule, the Activity [7] was 115.3 mg/dL and the Activity [8] was 582 U/mg protein.

With `CN1C[C@H](c2ccc(O)c(O)c2)[C@]2(SC(=O)NC2=S)[C@]12C(=O)Nc1ccccc12` the Activity [1] was 2 mg/dL, the Activity [2] was 175.5 mg/dL and the Activity [3] was 142.8 U/ml. The Activity [4] was 158.5 mg/dL, the Activity [5] was 39 mg/dL and the Activity [6] was 43.8 KA/dl. For the same molecule, the Activity [7] was 120.5 mg/dL and the Activity [8] was 646 U/mg protein.

`COc1ccc([C@H]2CN(C)[C@@]3(C(=O)Nc4ccccc43)[C@@]23SC(=O)NC3=O)cc1OC` gave an Activity [1] of 1.8 mg/dL, an Activity [2] of 133.5 mg/dL and an Activity [3] of 140.5 U/ml. It also gave an Activity [4] of 123.8 mg/dL, an Activity [5] of 41.8 mg/dL and an Activity [6] of 48.5 KA/dl. It also gave an Activity [7] of 115.8 mg/dL and an Activity [8] of 698 U/mg protein.

For `Cc1ccc([C@H]2CN(C)[C@@]3(C(=O)Nc4ccccc43)[C@@]23SC(=O)NC3=O)cc1`, the Activity [1] was 1.8 mg/dL, the Activity [2] was 140.5 mg/dL and the Activity [3] was 129.8 U/ml. For the same molecule, the Activity [4] was 136.5 mg/dL, the Activity [5] was 37.5 mg/dL and the Activity [6] was 38.3 KA/dl. The Activity [7] was 125.5 mg/dL and the Activity [8] was 558 U/mg protein.

Work on `CN1C[C@H](c2ccc(F)c(F)c2)[C@]2(SC(=O)NC2=S)[C@]12C(=O)Nc1ccccc12` yielded an Activity [1] of 1.5 mg/dL, an Activity [2] of 137.5 mg/dL and an Activity [3] of 137.5 U/ml. The Activity [4] was 112.8 mg/dL, the Activity [5] was 38.5 mg/dL and the Activity [6] was 37 KA/dl. For the same molecule, the Activity [7] was 106.5 mg/dL and the Activity [8] was 626 U/mg protein.
